The conditions of experiment [1]: other NMDA receptor antagonists; cited from earlier work.
The conditions of experiment [2]: cited from earlier work.
Another experiment has as its system glioblastoma cells. The experiment in a line: Secreted kynurenine in conditioned media of glioblastoma cells (HPLC). As to conditions: ketamine vs vehicle (FIG. 10).
The subject of another experiment is iPSC-derived neurons. The experiment in a line: Ketamine treatment of iPSC-derived neuron culture, mRNA and protein levels. Type of experiment: cell-based, human. The protocol:
Human induced pluripotent stem cells (iPSCs) were purchased from Axol, UK and were differentiated as per the company's protocol. The cells were differentiated for 30 days before being used for lentivirus-mediated knockdown experiments.
(§1) Lysates obtained from cells subjected to knockdown or overexpression were used to isolate total RNA (Zymo Research). The purity of the extracted RNA samples was assessed using a Nanodrop instrument (Thermo Scientific). All samples had acceptable A260/A280 ratios. AHR, ARNT, AHRR, IDO1, and TDO2 mRNAs levels were quantified by reverse transcription quantitative PCR (RT-qPCR) using a one step RNA-to-Ct™ kit (Life Technologies). The kit contains reagents for converting RNA to cDNA, followed by primer-specific amplification of the desired mRNA (in this case, AHR, ARNT, AHRR, IDO1, and TDO2). GAPDH was used as a reference gene. The quantification of these mRNAs was carried out by employing the ΔΔCt method as described elsewhere (Ingle et al., Cancer Discovery 3(7):812-825, 2013).
(§2) Cell lysates obtained after transfections and from LCLs were subjected to Western immunoblotting to detect levels of AHR, AHRR, ARNT, TDO2, and IDO1 proteins. Briefly, equal amounts of protein (as determined by the BCA protein assay) were loaded onto premade Criterion gels (Bio-Rad) and run for 1 hour at 180V. Proteins from the gels were electrophoretically transferred onto PVDF membranes and blocked at room temperature for 1 hour with 5% non-fat milk dissolved in TBST. The membranes were incubated with primary antibodies (anti-AHR from GeneTex, Inc. (Irvine, Calif.); anti-ARNT and anti AHRR from Sigma (St. Louis, Mo.); TDO2 from OriGene Technologies, Inc.; and IDO1) dissolved in 5% non-fat milk containing TBST at 4° C. overnight with gentle rocking. Following incubation, the membranes were vigorously washed with TB ST several times and then incubated with appropriate secondary antibodies, dissolved in 5% non-fat milk containing TBST at room temperature for 1 hour. Several TBST washes were carried out before ECL reagents were applied to the membranes and radiographic images were captured on X-ray films (GE). B-actin protein also was detected and served as a loading control. Quantification of Western immunoblots was carried out using NIH Image-J (Abramoff et al., Biophotonics Intl 11(7):36-42, 2004), and plotted in GraphPad-Prism software.

The next experiment deals with U251 glioma cells. The experiment in a line: Ketamine treatment of U251 glioma cell culture, mRNA (RT-qPCR) and protein (Western blot) levels. As to conditions: U251 glia. Type of experiment: cell-based, human. The protocol: as §1, §2
Background: In qPCR the cycle at which signal appears reflects the starting amount.

Setting [3] is: ketamine vs vehicle (FIGS. 8A, 8B).

The text below walks through data of US11122997B2, “Modulating the aryl hydrocarbon receptor system to treat major depressive disorder” (Mayo Foundation for Medical Education and Research, priority 2015, dated 2021).

`C[C@]12N[C@H](Cc3ccccc31)c1ccccc12` [MK801]: the ketamine-like antidepressant effects result in experiment [1] is “fail to demonstrate ketamine-like antidepressant effects”.

In the case of `CC12CC3CC(C)(C1)CC(N)(C3)C2` [memantine], in experiment [1], the ketamine-like antidepressant effects entry is “fail to demonstrate ketamine-like antidepressant effects”.

In the case of `CNC1(c2ccccc2Cl)CCCCC1=O` (stereo not drawn) [Ketamine], the effect on mood result in experiment [2] (severely depressed patients) was “rapid improvement in mood”. In experiment [2] (single infusion), the duration of effects result is “last for weeks”. The “secreted KYN in cell culture conditioned media” value in the experiment on glioblastoma cells is on record as “decreased levels”. In the experiment on iPSC-derived neurons (ketamine vs vehicle (FIG. 8C)), the “mRNA level of AHRR” value is reported as “Decreased levels”, the “mRNA level of IDOL” value was “decreased levels” and the “mRNA level of TDO2” value is listed as “decreased levels”. In the experiment with iPSC-derived neurons (ketamine vs vehicle (FIG. 9B)), the “protein level of AHRR” value was “Decreased levels”, the “protein level of IDOL” value is “decreased levels” and the “protein level of TDO2” value was “decreased levels”. In the experiment on U251 glioma cells (ketamine for 24 hours vs vehicle (FIG. 9A)), the “protein level of IDOL” value is given as “decreased levels”. In the experiment with U251 glioma cells (setting [3]), the “mRNA level of AHRR” value is reported as “Decreased levels”, the “mRNA level of IDOL” value is “decreased levels” and the “mRNA level of TDO2” value is “decreased levels”.
